In US20210130339A1, “COMPOUNDS” (GLAXOSMITHKLINE INTELLECTUAL PROPERTY DEVELOPMENT LIMITED, priority 2017, published 2021):
Values joined by “and” are separate entries in the source; they are usually repeats but may differ in a detail not shown here. Equal entries are not always repeated.

Assays:
[1] = biological target: T1, Full length G2019 human LRRK2 (Homo sapiens, UniProt Q5S007); assay: Full length G2019 human LRRK2 Inhibition Mass Spectrometry assay; assay type: biochemical; conditions: LRRKtide substrate, RapidFire mass spectrometry; read-out: pIC50 in the Full length G2019 human LRRK2 Inhibition Mass Spectrometry assay (converted)
T1 construct: purified recombinant Full length Flag-LRRK2 in assay buffer; made in house; host or cells: HEK293 6E cells transduced with BacMam virus (virus generated in Sf9 cells)
Experimental: a. Full Length G2019 Human LRRK2 Inhibition Mass Spectrometry Assay
This assay for Leucine Rich Repeat Kinase 2 (LRRK2) inhibition is based on the direct measurement of the peptide ‘LRRKtide’ (LRRKtide: RLGRDKYKT*LRQIRQ and “*” refers to the site of phosphorylation.) and phosphorylated ‘LRRKtide’ using a high throughput RapidFire mass spectrometry assay. Inhibitors are compounds that reduce the conversion of LRRKtide to phospho-LRRKtide.
HEK293 6E cells were incubated in a 37° C. incubator with a humidified atmosphere of 5% CO2 on an orbital shaker rotating at 110 rpm. On the day of transduction, the cell viability was higher than 98% and the cell density was in the range of 1×10^6˜1.5×10^6 cells/ml. HEK293 6E cells were centrifuged at 1,000 rpm for 10 min, and then the cells were resuspended in fresh Freestyle 293 expression medium (Invitrogen:12338) with 0.1% F-68 (Invitrogen:24040-032) but without antibiotics (G418) at density of 1×10^6 cells/ml. BacMam virus with Flag-hu LRRK2 (genotypically normal) gene was centrifuged at 40,000 g for 2 hours, then resuspended in fresh Freestyle 293 expression medium. The resuspended virus was added into the cells in at MOI of 10. The cells were incubated in a 37° C. incubator with a humidified atmosphere of 5% CO2 in air on an orbital shaker rotating at 110 rpm. Cultures were harvested at approximately 48 hours post-transduction by centrifugation at 4,000 rpm for 20 min and pellets were frozen for purification.
The suspended cells were lysed by sonication on ice for 30 min (2 secs on/4 sec off, 20% amplitude), and centrifuged at 10,000 rpm for 30 minutes at 4° C. The supernatant was incubated with 1 mL per litre of cell culture of anti-Flag magnetic beads (Sigma-Aldrich: M8823) at 4° C. for 3 hours, then the beads were washed by 5 mL (5 column volume) binding buffer (50 mM Tris pH7.5@ 4C, 500 mM NaCl, 0.5 mM EDTA, 0.1% TritonX-100, 10% glycerol, freshly add 2 mM DTT) for three times. The Flag tagged LRRK2 proteins were eluted by Elution buffer (50 mM Tris pH7.5@ 4C, 500 mM NaCl, 0.5 mM EDTA, 0.1% TritonX-100, 10% glycerol, freshly add 2 mM DTT, 250 ug/ml Flag peptide (Sigma-Aldrich:F3290)) at 4° C. for 2 hours. Flag peptide was removed by Zeba Spin Desalting Columns, 7K MWCO (Thermo-Fisher: 89893) and the buffer of eluted LRRK2 proteins was exchanged into Storage Buffer (50 mM Tris pH7.5@4C, 150 mM NaCl, 0.5 mM EDTA, 0.02% Triton X-100, 2 mM DTT and 50% Glycerol) using Amicon Ultra Centrifugal Filter Units (100 kD) (Merck: UFC910096). Fractions containing LRRK2 proteins were pooled, aliquoted and stored at −80° C. Protein concentration was determined by Bradford protein assay, and protein purity was analyzed by NuPAG Novex 4-12% Bis-Tris Protein Gels (Invitrogen: NP0322BOX).
• 1) A 10 mM test compound was dissolved in 100% DMSO and serially diluted 1 in 4. 100 nL of this dilution series was then added to a 384 well, v bottom polypropylene plate, excluding columns 6 and 18. 100 nL of DMSO was added to columns 6 and 18 as controls wells. Assay dilution gave a top final assay concentration of test compound of 100 μM • 2) 50 μl of 1% formic acid in laboratory grade water was added to column 18 using a multidrop combi dispenser to act as a pre stopped assay control. • 3) 5 μl of ‘enzyme solution’ containing 50 nM of purified recombinant Full length Flag-LRRK2 in assay buffer (50 mM Hepes (pH 7.2), 10 mM MgCl2, 150 mM NaCl, 5% glycerol, 0.0025% triton X-100 and 1 mM DTT) was added to all wells using a multidrop combi dispenser, giving a final assay concentration of 25 nM LRRK2 enzyme. […] Test plates were then incubated for 30 minutes at room temperature. • 4) 5 μl ‘substrate solution’ containing 50 uM LRRKtide peptide substrate and 4 mM ATP was added to all wells of the plate using a multidrop combi dispenser giving a final assay concentration of 25 uM LRRKtide and 2 mM ATP. Test plates were then incubated for 1 hour at room temperature. […]

[2] = biological target: T2, recombinant full length LRRK2 (Homo sapiens, UniProt Q5S007); assay: Recombinant cellular LRRK2 AlphaScreen assay; assay type: cell-based; conditions: LRRK2 Ser935 phosphorylation, SH-SY5Y cells over-expressing recombinant full length LRRK2; read-out: pIC50 in the recombinant cellular LRRK2 AlphaScreen assay (converted)
T2 construct: A BacMam virus expressing full length recombinant LRRK2 was purchased from Invitrogen; host or cells: SH-SY5Y human neuroblastoma cells transduced with BacMam LRRK2 virus (MOI 50)
Excerpt: b. Recombinant Cellular LRRK2 AlphaScreen Assay
To determine the activity of compounds against LRRK2 kinase activity in cells, the observed LRRK2 kinase-dependent modulation of LRRK2 Ser 935 phosphorylation (Dzamko et al., 2010, Biochem. J. 430: 405-413) was utilized to develop a quantitative 384 well plate-based immunoassay of LRRK2 Ser935 phosphorylation in the human neuroblastoma cell line SH-SY5Y, engineered to over-express recombinant full length LRRK2 protein. A BacMam virus expressing full length recombinant LRRK2 was purchased from Invitrogen and amplified by inoculation of SF-9 cells at MOI 0.3 for 4-5 days in Sf-900 III SFM medium supplemented with 3% fetal bovine serum. Infected cell cultures were then centrifuged at 2000 g for 20 minutes, viral supernatant titer determined by anti-gp64 plaque assay and stored at 4° C. Affinity-purified anti-phospho LRRK2 Ser935 sheep polyclonal antibody (Dzamko et al., 2010, Biochem. J. 430: 405-413) was biotinylated by standard methods (PerkinElmer). Anti-LRRK2 rabbit polyclonal antibody was purchased from Novus Biologicals. AlphaScreen Protein A IgG Kit (including acceptor and donor beads) was purchased from Perkin Elmer. SH-SY5Y cells were grown in DMEM/F12 medium with 10% dialysed fetal bovine serum and harvested by treatment with 0.5% trypsin-EDTA for 5 minutes at 37° C. followed by centrifugation at 1000 rpm for 4 minutes. The cell pellet was resuspended in Opti-MEM reduced serum media (Invitrogen) at 200,000 cells/ml and mixed with the BacMam LRRK2 virus at MOI=50. 50 μl cell solutions were then dispensed to each well of a 384-well plate and incubated at 37° C., 5% CO2 for 24 hours. Serial dilutions of test compounds were prepared in Opti-MEM reduced serum media (Invitrogen) and 5.6 ul transferred from compound plate to cell assay plate to achieve a top final assay concentration of 10 uM. DMSO was used in certain wells as controls. Cells were incubated at 37° C., 5% CO2 for 60 minutes. The medium was then removed and cells lysed by addition of 20 ul cell lysis buffer (Cell Signaling Technology) and incubation at 4° C. for 20 minutes. 10 ul of antibody/acceptor bead mix [(1/1000 biotinylated-pS935 LRRK2 antibody, 1/1000 total-LRRK2 antibody, 1/100 Acceptor beads in AlphaScreen detection buffer (25 mM Hepes (pH 7.4), 0.5% Triton X-100, 1 mg/ml Dextran 500 and 0.1% BSA)] was then added to each well and plates incubated for 2 hours at ambient temperature in the dark. 10 μl of donor beads solution (1/33.3 donor beads in AlphaScreen detection buffer) was then added to each well. Following incubation for a further 2 hours at ambient temperature in the dark, plates were read on an EnVision™ plate reader at emission 520-620 nm with excitation 680 nm. Dose response curve data was based on sigmoidal dose-response model.

T1 sequence (Q5S007 with tags, fused parts or gaps R50H): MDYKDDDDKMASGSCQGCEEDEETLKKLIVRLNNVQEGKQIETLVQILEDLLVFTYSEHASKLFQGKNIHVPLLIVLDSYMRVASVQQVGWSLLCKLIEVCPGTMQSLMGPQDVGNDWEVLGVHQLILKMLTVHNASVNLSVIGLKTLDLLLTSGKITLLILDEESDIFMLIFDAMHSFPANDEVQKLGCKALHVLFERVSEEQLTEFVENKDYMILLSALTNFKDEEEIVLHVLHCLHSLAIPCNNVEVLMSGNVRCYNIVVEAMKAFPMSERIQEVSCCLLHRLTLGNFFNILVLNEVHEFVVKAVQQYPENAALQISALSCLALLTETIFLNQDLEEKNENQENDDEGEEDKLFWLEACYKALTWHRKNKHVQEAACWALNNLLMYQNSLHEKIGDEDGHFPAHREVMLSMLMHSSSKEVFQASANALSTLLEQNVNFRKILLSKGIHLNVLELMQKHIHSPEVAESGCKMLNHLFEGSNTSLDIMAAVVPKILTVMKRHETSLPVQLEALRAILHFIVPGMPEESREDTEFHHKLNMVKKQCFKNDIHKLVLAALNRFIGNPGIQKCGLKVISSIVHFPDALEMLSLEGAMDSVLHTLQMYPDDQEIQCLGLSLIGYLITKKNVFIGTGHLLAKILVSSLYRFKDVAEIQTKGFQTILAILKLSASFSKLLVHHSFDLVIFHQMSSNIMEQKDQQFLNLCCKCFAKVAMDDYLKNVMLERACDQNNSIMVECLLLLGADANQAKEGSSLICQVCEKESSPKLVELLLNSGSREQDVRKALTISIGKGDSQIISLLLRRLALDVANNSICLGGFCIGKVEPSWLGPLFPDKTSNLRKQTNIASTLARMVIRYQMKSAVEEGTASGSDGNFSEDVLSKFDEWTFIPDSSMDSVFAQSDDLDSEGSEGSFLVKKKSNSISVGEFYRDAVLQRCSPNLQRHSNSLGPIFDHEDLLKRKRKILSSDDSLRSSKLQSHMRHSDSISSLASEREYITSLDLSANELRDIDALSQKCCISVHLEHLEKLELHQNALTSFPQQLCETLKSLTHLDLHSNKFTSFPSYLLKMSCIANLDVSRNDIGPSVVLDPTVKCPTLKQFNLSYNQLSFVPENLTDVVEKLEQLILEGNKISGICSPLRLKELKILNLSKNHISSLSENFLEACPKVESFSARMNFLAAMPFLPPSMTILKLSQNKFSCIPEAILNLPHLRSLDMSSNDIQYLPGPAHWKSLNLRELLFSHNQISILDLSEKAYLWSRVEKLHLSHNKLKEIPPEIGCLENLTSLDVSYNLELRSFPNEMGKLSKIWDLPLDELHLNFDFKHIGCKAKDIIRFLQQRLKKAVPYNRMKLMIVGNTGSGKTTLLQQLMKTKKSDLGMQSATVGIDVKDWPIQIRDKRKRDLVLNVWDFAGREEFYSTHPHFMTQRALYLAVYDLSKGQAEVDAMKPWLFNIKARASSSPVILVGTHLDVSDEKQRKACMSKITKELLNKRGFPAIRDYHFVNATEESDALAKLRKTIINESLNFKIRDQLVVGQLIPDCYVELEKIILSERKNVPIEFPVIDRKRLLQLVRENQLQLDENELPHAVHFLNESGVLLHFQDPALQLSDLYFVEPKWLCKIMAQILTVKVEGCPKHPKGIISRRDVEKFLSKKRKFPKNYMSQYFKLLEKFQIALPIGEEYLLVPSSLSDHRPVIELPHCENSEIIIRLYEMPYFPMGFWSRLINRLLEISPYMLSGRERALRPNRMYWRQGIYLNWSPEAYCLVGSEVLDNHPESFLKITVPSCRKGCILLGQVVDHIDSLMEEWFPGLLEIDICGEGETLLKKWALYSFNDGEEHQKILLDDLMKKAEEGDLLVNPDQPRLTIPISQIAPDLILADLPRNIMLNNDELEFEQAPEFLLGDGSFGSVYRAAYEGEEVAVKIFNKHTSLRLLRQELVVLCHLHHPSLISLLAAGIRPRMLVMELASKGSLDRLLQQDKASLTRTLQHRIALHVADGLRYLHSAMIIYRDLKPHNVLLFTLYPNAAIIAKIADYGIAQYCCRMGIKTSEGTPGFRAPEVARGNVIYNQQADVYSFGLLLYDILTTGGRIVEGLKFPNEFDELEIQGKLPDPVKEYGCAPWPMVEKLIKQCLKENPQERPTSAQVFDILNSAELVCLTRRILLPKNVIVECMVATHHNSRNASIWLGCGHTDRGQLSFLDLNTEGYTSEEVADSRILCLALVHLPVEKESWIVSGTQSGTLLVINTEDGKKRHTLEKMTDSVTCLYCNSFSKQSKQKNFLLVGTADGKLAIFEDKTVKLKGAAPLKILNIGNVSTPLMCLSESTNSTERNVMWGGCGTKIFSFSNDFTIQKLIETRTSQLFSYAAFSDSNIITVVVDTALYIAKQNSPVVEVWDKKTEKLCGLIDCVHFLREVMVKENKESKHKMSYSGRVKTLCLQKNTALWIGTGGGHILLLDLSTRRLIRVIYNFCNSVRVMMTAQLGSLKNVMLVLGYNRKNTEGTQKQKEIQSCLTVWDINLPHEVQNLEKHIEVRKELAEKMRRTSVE
T2 sequence (Q5S007 whole entry): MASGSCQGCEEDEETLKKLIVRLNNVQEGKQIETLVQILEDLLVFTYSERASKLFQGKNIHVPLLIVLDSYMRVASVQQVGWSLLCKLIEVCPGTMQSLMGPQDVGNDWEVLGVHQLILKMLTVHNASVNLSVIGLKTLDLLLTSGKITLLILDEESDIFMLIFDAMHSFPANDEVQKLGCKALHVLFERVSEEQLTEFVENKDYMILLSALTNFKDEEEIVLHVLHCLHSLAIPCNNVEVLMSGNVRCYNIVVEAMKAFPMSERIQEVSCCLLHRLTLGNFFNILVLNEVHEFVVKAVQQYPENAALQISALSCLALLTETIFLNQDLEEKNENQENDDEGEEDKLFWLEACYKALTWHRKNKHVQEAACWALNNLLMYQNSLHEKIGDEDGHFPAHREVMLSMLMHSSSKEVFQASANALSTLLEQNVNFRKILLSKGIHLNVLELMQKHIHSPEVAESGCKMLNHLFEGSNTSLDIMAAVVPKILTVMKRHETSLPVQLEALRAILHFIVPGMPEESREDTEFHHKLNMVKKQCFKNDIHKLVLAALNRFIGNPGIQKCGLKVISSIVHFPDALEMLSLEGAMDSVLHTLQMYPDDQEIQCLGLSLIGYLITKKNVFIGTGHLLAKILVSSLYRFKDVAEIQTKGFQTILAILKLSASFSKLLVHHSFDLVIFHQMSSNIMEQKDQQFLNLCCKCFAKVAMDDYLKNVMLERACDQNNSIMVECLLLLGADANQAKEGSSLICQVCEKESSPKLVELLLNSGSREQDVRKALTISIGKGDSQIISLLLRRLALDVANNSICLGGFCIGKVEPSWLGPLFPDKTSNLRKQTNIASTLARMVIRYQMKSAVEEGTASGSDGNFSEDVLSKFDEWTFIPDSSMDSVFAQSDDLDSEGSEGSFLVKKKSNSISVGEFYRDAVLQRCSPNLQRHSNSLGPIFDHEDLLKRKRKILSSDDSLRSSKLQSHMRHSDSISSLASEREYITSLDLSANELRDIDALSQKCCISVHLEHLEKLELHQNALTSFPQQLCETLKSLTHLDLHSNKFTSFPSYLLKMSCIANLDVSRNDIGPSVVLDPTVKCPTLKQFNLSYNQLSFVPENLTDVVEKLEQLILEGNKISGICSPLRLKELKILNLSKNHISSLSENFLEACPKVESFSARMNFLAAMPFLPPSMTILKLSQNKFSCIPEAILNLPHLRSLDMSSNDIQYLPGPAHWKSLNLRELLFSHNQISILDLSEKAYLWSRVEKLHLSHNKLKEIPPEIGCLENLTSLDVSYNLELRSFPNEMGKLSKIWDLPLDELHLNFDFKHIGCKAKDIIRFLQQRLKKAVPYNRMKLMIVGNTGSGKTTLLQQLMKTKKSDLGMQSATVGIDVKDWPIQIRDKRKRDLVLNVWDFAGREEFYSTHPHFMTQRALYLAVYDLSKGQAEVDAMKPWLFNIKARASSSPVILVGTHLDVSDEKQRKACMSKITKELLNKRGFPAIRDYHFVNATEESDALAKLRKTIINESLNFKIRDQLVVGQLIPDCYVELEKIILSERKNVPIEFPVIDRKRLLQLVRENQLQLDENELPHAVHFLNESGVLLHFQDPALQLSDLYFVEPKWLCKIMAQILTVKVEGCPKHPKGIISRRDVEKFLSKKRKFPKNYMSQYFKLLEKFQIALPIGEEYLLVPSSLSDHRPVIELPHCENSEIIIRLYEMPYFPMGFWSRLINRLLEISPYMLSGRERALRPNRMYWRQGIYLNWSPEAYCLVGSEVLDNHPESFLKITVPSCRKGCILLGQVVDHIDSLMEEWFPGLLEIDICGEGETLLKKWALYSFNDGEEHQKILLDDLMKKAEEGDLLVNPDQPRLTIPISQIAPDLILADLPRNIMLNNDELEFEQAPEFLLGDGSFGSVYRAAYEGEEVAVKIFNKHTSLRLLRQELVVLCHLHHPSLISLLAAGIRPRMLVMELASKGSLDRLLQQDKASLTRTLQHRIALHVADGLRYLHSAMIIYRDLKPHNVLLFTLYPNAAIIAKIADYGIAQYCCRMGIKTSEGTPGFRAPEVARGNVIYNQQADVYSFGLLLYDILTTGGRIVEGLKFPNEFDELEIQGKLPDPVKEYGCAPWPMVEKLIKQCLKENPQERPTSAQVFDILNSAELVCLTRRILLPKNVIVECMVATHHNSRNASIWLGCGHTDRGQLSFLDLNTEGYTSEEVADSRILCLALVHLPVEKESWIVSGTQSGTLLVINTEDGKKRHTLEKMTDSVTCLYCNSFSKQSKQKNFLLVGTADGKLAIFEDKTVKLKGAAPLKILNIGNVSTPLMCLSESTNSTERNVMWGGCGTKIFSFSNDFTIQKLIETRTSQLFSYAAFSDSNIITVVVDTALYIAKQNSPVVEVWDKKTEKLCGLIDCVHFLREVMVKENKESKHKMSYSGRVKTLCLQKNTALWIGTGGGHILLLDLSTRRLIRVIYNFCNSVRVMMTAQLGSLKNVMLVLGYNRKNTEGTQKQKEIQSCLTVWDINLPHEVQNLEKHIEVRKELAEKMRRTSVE

Structure (SMILES)	IC50 [1]	IC50 [2]
COc1nc(N2CC(O)C2)cc(-n2ncc3cc(Cl)c(C4CCN(C5CCOC5)CC4)cc32)n1 (single isomer, unassigned) [Example E30, 1-(6-(5-Chloro-6-(1-(tetrahydrofuran-3-yl)piperidin-4-yl)-1H-indazol-1-yl)-2-methoxy-pyrimidin-4-yl)azetidin-3-ol]	≤ 1 µM	≤ 0.1 µM
Cc1nc(N2CCO[C@H](CO)C2)cc(-n2ncc3cc(C)c(C4CCN(C5CCOC5)CC4F)cc32)n1 (single isomer, unassigned) [Example E106]	≤ 0.1 µM	≤ 1 µM
COc1nc(N2CCO[C@H](CO)C2)cc(-n2ncc3cc(C)c(C4CCN(C5CCOC5)CC4F)cc32)n1 (single isomer, unassigned) [Example E124]	≤ 0.1 µM	≤ 0.1 µM
Cc1nc(N2CCO[C@@H](CO)C2)cc(-n2ncc3cc(C)c(C4CCN([C@H]5CCOC5)CC4)cc32)n1 (single isomer, unassigned) [Example E4]	0.0251 µM	0.1 µM
COc1nc(N2CCOCC2)cc(-n2ncc3cc(C)c(C4CCN(C5CCOC5)CC4F)cc32)n1 (single isomer, unassigned) [Example E125, 4-(6-(6-(3-fluoro-1-(tetrahydrofuran-3-yl)-piperidin-4-yl)-5-methyl-1H-indazol-1-yl)-2-methoxypyrimidin-4-yl)morpholine]	≤ 1 µM	≤ 0.01 µM
Cc1nc(N2CCOC(C(C)O)C2)cc(-n2ncc3cc(C)c(C4CCN(C5CCOC5)CC4)cc32)n1 (single isomer, unassigned) [Example E140, 1-(4-(2-methyl-6-(5-methyl-6-(1-(tetrahydrofuran-3-yl)piperidin-4-yl)-1H-indazol-1-yl)pyrimidin-4-yl)morpholin-2-yl)ethanol]	≤ 0.1 µM	≤ 1 µM
Cc1nc(N2CCO[C@H](CO)C2)cc(-n2ncc3cc(C)c(C4CCN(C5COCC5F)CC4)cc32)n1 (single isomer, unassigned) [Example E149]	≤ 0.1 µM	≤ 1 µM
Cc1nc(N2CCO[C@H](CO)C2)cc(-n2ncc3cc(C)c(C4CCN(C5COCC5F)CC4)cc32)n1 (single isomer, unassigned) [Example E150]	≤ 1 µM	≤ 0.1 µM
Cc1nc(N2CCO[C@H](CO)C2)cc(-n2ncc3cc(C)c(C4CCN(C5COCC5O)CC4)cc32)n1 (single isomer, unassigned) [Example E153]	≤ 0.1 µM	≤ 0.1 µM

Now from value to compound:

IC50 [1]	IC50 [2]	Structure (SMILES)
≤ 0.1 µM and 0.0251 µM	≤ 0.1 µM and 0.0631 µM	Cc1nc(N2CCOC(C(C)O)C2)cc(-n2ncc3cc(C)c(C4CCN(C5CCOC5)CC4)cc32)n1 (single isomer, unassigned) [Example E138, 1-(4-(2-methyl-6-(5-methyl-6-(1-(tetrahydrofuran-3-yl)piperidin-4-yl)-1H-indazol-1-yl)pyrimidin-4-yl)morpholin-2-yl)ethanol]
≤ 0.1 µM	≤ 0.1 µM	COc1nc(N2CCOCC2)cc(-n2ncc3cc(C)c(C4CCN(C5CCOC5)CC4F)cc32)n1 (single isomer, unassigned) [Example E126, 4-(6-(6-(3-fluoro-1-(tetrahydrofuran-3-yl)-piperidin-4-yl)-5-methyl-1H-indazol-1-yl)-2-methoxypyrimidin-4-yl)morpholine]
≤ 0.1 µM	≤ 0.1 µM	COc1nc(N2CCOCC2)cc(-n2ncc3cc(C)c(C4CCN(C5CCOC5)CC4F)cc32)n1 (single isomer, unassigned) [Example E116, Cis-4-(6-(6-(3-fluoro-1-(tetrahydrofuran-3-yl)-piperidin-4-yl)-5-methyl-1H-indazol-1-yl)-2-methoxypyrimidin-4-yl)morpholine]
≤ 1 µM	≤ 1 µM	Cc1nc(N2CCOC(C(C)O)C2)cc(-n2ncc3cc(C)c(C4CCN(C5CCOC5)CC4)cc32)n1 (single isomer, unassigned) [Example E142, 1-(4-(2-methyl-6-(5-methyl-6-(1-(tetrahydrofuran-3-yl)piperidin-4-yl)-1H-indazol-1-yl)pyrimidin-4-yl)morpholin-2-yl)ethanol]
